Results: the NIST ThermoML archive (doi:10.1021/je7001013)

Assays:
[1] = xn = mol fraction of the nth substance listed; conditions: Maximal bubble pressure
[2] = refractive index (Na D-line) (dimensionless); xn = mol fraction of the nth substance listed; conditions: 101 kPa, Liquid

C[S+](C)[O-] [dimethyl sulfoxide] + O
Conditions	refractive index, [2]	surface tension liquid-gas, [1] [mN/m]
298.15 K, x1 = 0.0121	1.34	71
298.15 K, x1 = 0.0202	1.344	69.7
298.15 K, x1 = 0.1044	–	61.2
298.15 K, x1 = 0.1467	1.396	–
298.15 K, x1 = 0.1979	–	56.7
298.15 K, x1 = 0.2455	1.4215	–
298.15 K, x1 = 0.2507	–	55.4
298.15 K, x1 = 0.2959	1.4305	–
298.15 K, x1 = 0.2999	–	53.3
298.15 K, x1 = 0.3187	–	53.1
298.15 K, x1 = 0.3213	1.4345	–
298.15 K, x1 = 0.3536	–	52.6
298.15 K, x1 = 0.3713	1.4415	–
298.15 K, x1 = 0.3802	–	52
298.15 K, x1 = 0.3967	1.4445	–
298.15 K, x1 = 0.4191	–	51
298.15 K, x1 = 0.4301	1.4475	–
298.15 K, x1 = 0.4523	–	50.3
298.15 K, x1 = 0.501	–	48.3
298.15 K, x1 = 0.59	–	46
298.15 K, x1 = 0.5964	1.461	–
298.15 K, x1 = 0.7027	–	44
298.15 K, x1 = 0.7685	1.47	–
298.15 K, x1 = 0.8088	–	42.6
298.15 K, x1 = 0.8945	–	42
303.15 K, x1 = 0.0121	1.339	70.1
303.15 K, x1 = 0.0202	1.3435	68.7
303.15 K, x1 = 0.1044	–	60.6
303.15 K, x1 = 0.1467	1.4005	–
303.15 K, x1 = 0.1979	–	55.8
303.15 K, x1 = 0.2455	1.42	–
303.15 K, x1 = 0.2507	–	54.5
303.15 K, x1 = 0.2959	1.4295	–
303.15 K, x1 = 0.2999	–	52.4
303.15 K, x1 = 0.3187	–	52.3
303.15 K, x1 = 0.3213	1.4335	–
303.15 K, x1 = 0.3536	–	51.7
303.15 K, x1 = 0.3713	1.4405	–
303.15 K, x1 = 0.3802	–	51.2
303.15 K, x1 = 0.3967	1.443	–
303.15 K, x1 = 0.4191	–	50
303.15 K, x1 = 0.4301	1.4455	–
303.15 K, x1 = 0.4523	–	49.9
303.15 K, x1 = 0.501	–	47.4
303.15 K, x1 = 0.59	–	45.2
303.15 K, x1 = 0.5964	1.459	–
303.15 K, x1 = 0.7027	–	43.4
303.15 K, x1 = 0.7685	1.468	–
303.15 K, x1 = 0.8088	–	42.1
303.15 K, x1 = 0.8945	–	41.4
308.15 K, x1 = 0.0121	1.3395	69.2
308.15 K, x1 = 0.0202	1.343	67.9
308.15 K, x1 = 0.1044	–	59.8
308.15 K, x1 = 0.1467	1.4	–
308.15 K, x1 = 0.1979	–	54.8
308.15 K, x1 = 0.2455	1.419	–
308.15 K, x1 = 0.2507	–	53.2
308.15 K, x1 = 0.2959	1.428	–
308.15 K, x1 = 0.2999	–	51.5
308.15 K, x1 = 0.3187	–	51.4
308.15 K, x1 = 0.3213	1.432	–
308.15 K, x1 = 0.3536	–	50.6
308.15 K, x1 = 0.3713	1.4395	–
308.15 K, x1 = 0.3802	–	50.3
308.15 K, x1 = 0.3967	1.442	–
308.15 K, x1 = 0.4191	–	49.2
308.15 K, x1 = 0.4301	1.4445	–
308.15 K, x1 = 0.4523	–	49.1
308.15 K, x1 = 0.501	–	46.7
308.15 K, x1 = 0.59	–	44.6
308.15 K, x1 = 0.5964	1.458	–
308.15 K, x1 = 0.7027	–	42.6
308.15 K, x1 = 0.7685	1.466	–
308.15 K, x1 = 0.8088	–	41.5
308.15 K, x1 = 0.8945	–	40.9
313.15 K, x1 = 0.0121	–	67.6
313.15 K, x1 = 0.0202	–	66.9
313.15 K, x1 = 0.1044	–	58.7
313.15 K, x1 = 0.1979	–	53.9
313.15 K, x1 = 0.2507	–	52.3
313.15 K, x1 = 0.2999	–	50.6
313.15 K, x1 = 0.3187	–	50.4
313.15 K, x1 = 0.3536	–	50
313.15 K, x1 = 0.3802	–	49.5
313.15 K, x1 = 0.4191	–	48.4
313.15 K, x1 = 0.4523	–	48.2
313.15 K, x1 = 0.501	–	46
313.15 K, x1 = 0.59	–	43.8
313.15 K, x1 = 0.7027	–	42.1
313.15 K, x1 = 0.8088	–	40.9
313.15 K, x1 = 0.8945	–	40.3
318.15 K, x1 = 0.0121	–	66.4
318.15 K, x1 = 0.0202	–	65.8
318.15 K, x1 = 0.1044	–	57.9
318.15 K, x1 = 0.1979	–	53
318.15 K, x1 = 0.2507	–	51.2
318.15 K, x1 = 0.3218	–	50.7
318.15 K, x1 = 0.3506	–	49.7
318.15 K, x1 = 0.3549	–	49.4
318.15 K, x1 = 0.3802	–	48.6
318.15 K, x1 = 0.4191	–	47.5
318.15 K, x1 = 0.4523	–	47.3
318.15 K, x1 = 0.501	–	45.1
318.15 K, x1 = 0.59	–	43.1
318.15 K, x1 = 0.7027	–	41.4
318.15 K, x1 = 0.8088	–	40.4
318.15 K, x1 = 0.8945	–	39.8
323.15 K, x1 = 0.0121	–	65.3
323.15 K, x1 = 0.0202	–	64.8
323.15 K, x1 = 0.1044	–	57
323.15 K, x1 = 0.1979	–	52.2
323.15 K, x1 = 0.2507	–	50.3
323.15 K, x1 = 0.3218	–	49.9
323.15 K, x1 = 0.3506	–	48.7
323.15 K, x1 = 0.3549	–	48.4
323.15 K, x1 = 0.3802	–	47.7
323.15 K, x1 = 0.4191	–	46.7
323.15 K, x1 = 0.4523	–	46.3
323.15 K, x1 = 0.501	–	44.4
323.15 K, x1 = 0.59	–	42.3
323.15 K, x1 = 0.7027	–	40.8
323.15 K, x1 = 0.8088	–	39.8
323.15 K, x1 = 0.8945	–	39.2
328.15 K, x1 = 0.0121	–	65.1
328.15 K, x1 = 0.0202	–	63.8
328.15 K, x1 = 0.1044	–	55.1
328.15 K, x1 = 0.1979	–	51.1
328.15 K, x1 = 0.2507	–	49.4
328.15 K, x1 = 0.3218	–	49
328.15 K, x1 = 0.3506	–	47.7
328.15 K, x1 = 0.3549	–	47.4
328.15 K, x1 = 0.3802	–	46.8
328.15 K, x1 = 0.4191	–	45.9
328.15 K, x1 = 0.4523	–	45.3
328.15 K, x1 = 0.501	–	43.5
328.15 K, x1 = 0.59	–	41.7
328.15 K, x1 = 0.7027	–	40.2
328.15 K, x1 = 0.8088	–	39.2
328.15 K, x1 = 0.8945	–	38.7
